In patent publication US20180099931A1 (AbbVie S.à.r.l., priority 2016, published 2018):
Like-named read-outs stand apart in the source and are kept apart here.

Biological target: T1, F508delCFTR (Homo sapiens, UniProt P13569, DEL508-508)
T1 construct: expressed in transfected cells; host or cells: CFBE41o- human lung-derived epithelial cells (CFBE4lo-F508delCFTR-HRP), doxycycline-inducible
Assay: Cell Surface Expression-Horse Radish Peroxidase (CSE-HRP) Assay;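 on Maximum % activity (with co-corrector): co-corrector and positive control are both the same reference corrector at 2 µM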;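 on Maximum % activity (without co-corrector): percent of the 2 µM on-plate positive control corrector response above DMSO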
Type: cell-based
Details: for Maximum % activity (with co-corrector): with co-corrector (2 μM); for Maximum % activity (with co-corrector) / Emax: maximum at any tested concentration, normalized to on-plate positive control; for Emax: without co-corrector, read-out: Maximum % activity (without co-corrector)

[1] = test compound without co-corrector, read-out: EC50 (without co-corrector)
[2] = with co-corrector (2 μM of 3-[(2R,4R)-4-({[1-(2,2-difluoro-1,3-benzodioxol-5-yl)cyclopropyl]carbonyl}amino)-7-methoxy-3,4-dihydro-2H-chromen-2-yl]benzoic acid), read-out: EC50 (with co-corrector)
[3] = CSE-HRP, test compound without co-corrector, read-out: EC50 (without co-corrector)
[4] = CSE-HRP, with co-corrector (2 μM of 3-[(2R,4R)-4-({[1-(2,2-difluoro-1,3-benzodioxol-5-yl)cyclopropyl]carbonyl}amino)-7-methoxy-3,4-dihydro-2H-chromen-2-yl]benzoic acid), read-out: EC50 (with co-corrector)

T1 sequence (P13569 with tags, fused parts or gaps DEL508-508): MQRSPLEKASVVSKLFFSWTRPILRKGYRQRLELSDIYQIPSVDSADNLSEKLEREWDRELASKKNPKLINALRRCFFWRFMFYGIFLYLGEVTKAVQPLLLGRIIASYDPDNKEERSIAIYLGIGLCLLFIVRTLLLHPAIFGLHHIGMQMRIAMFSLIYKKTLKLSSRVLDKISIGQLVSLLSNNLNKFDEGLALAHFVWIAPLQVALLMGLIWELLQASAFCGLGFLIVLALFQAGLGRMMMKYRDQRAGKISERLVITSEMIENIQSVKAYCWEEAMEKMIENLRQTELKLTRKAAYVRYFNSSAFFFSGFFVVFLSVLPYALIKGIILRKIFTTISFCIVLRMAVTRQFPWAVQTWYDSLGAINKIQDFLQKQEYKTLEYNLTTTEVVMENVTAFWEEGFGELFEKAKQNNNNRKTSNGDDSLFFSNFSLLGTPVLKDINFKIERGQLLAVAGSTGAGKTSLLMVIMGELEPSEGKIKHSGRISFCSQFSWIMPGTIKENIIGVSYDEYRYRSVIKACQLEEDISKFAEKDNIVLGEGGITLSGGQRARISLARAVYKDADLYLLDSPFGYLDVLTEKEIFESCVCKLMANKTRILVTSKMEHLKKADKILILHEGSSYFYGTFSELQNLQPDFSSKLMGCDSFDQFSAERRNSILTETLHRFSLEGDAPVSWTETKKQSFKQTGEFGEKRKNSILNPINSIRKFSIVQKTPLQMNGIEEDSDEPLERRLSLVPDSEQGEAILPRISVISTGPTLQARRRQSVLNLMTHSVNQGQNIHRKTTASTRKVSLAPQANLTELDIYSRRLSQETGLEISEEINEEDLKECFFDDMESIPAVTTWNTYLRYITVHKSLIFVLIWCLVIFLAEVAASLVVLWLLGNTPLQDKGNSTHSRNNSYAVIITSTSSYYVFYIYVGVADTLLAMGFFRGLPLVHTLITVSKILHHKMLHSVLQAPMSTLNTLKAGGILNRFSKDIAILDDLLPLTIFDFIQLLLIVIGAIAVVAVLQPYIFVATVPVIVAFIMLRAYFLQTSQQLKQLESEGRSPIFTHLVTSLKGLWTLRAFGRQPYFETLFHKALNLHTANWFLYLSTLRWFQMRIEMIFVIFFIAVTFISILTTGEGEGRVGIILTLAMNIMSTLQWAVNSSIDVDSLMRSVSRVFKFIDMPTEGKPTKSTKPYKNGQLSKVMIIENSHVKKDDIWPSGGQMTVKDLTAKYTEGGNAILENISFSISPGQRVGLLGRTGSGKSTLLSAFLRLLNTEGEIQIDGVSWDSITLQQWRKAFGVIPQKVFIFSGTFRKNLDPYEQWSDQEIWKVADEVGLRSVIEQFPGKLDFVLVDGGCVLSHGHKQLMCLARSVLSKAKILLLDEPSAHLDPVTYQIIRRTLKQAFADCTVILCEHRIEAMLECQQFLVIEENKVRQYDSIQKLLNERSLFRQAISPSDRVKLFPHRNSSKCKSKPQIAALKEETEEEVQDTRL

CO[C@H](C(=O)N1[C@H](c2ccccc2)[C@H](Nc2cc(C(F)(F)F)cc(C)n2)[C@@H](C(C)(C)C)[C@@H]1C(=O)O)c1ccccc1 (relative stereo) [Example I-33]
EC50 [1]: > 10000 nM | EC50 [2]: 1000 to 10000 nM | Maximum % activity (with co-corrector): ++ (≥150 and <350) | Emax: < 100%

COc1ccc(C(C)(C)C)cc1CN[C@H]1[C@H](C(C)(C)C)[C@@H](C(=O)O)N(C(=O)[C@@H]2OCC[C@@H]2C(C)C)[C@H]1c1ccccc1 (relative stereo) [Example I-104, (2S,3S,4S,5S)-3-tert-butyl-4-{[(5-tert-butyl-2-methoxyphenyl)methyl]amino}-5-phenyl-1-[(2R*,3R*)-3-(propan-2-yl)oxolane-2-carbonyl]pyrrolidine-2-carboxylic acid]
EC50 [1]: 1000 to 10000 nM | EC50 [2]: 1000 to 10000 nM | Maximum % activity (with co-corrector): +++ (≥350) | Emax: 100 to 200%

COc1ccc(C(F)(F)F)cc1CN[C@H]1[C@H](C(C)(C)C)[C@@H](C(=O)O)N(C(=O)[C@@H]2OCC[C@@H]2C(C)C)[C@H]1c1ccccc1 (relative stereo) [Example I-105]
EC50 [1]: 1000 to 10000 nM | EC50 [2]: 1000 to 10000 nM | Maximum % activity (with co-corrector): +++ (≥350) | Emax: < 100%

COc1ccc(C(F)(F)F)cc1CN[C@H]1[C@H](C(C)(C)C)[C@@H](C(=O)O)N(C(=O)[C@H]2OCC[C@H]2C(C)C)[C@H]1c1ccccc1 (relative stereo) [Example I-106]
EC50 [1]: 1000 to 10000 nM | EC50 [2]: 1000 to 10000 nM | Maximum % activity (with co-corrector): +++ (≥350) | Emax: > 200%

COc1ccc(C(C)(C)C)cc1CN[C@H]1[C@H](C(C)(C)C)[C@@H](C(=O)O)N(C(=O)C2OC[C@@H]3CCC[C@H]23)[C@H]1c1ccccc1 (relative stereo) [Example I-107]
EC50 [1]: 1000 to 10000 nM | EC50 [2]: 1000 to 10000 nM | Maximum % activity (with co-corrector): +++ (≥350) | Emax: > 200%

COc1ccc(C(F)(F)F)cc1CN[C@H]1[C@H](C(C)(C)C)[C@@H](C(=O)O)N(C(=O)C2OC[C@@H]3CCC[C@H]23)[C@H]1c1ccccc1 (relative stereo) [Example I-108]
EC50 [1]: 1000 to 10000 nM | EC50 [2]: 1000 to 10000 nM | Maximum % activity (with co-corrector): +++ (≥350) | Emax: 100 to 200%

COc1ccc(C(C)(C)C)cc1CN[C@H]1[C@H](C(C)(C)C)[C@@H](C(=O)O)N(C(=O)[C@@H]2C[C@H]2c2cccnc2)[C@H]1c1ccccc1 (relative stereo) [Example I-139]
EC50 [1]: 1000 to 10000 nM | EC50 [2]: 1000 to 10000 nM | Maximum % activity (with co-corrector): +++ (≥350) | Emax: > 200%

COc1ccc(C(C)(C)C)cc1CN[C@H]1[C@H](C(C)(C)C)[C@@H](C(=O)O)N(C(=O)C(OC)c2ccc(F)c(F)c2)[C@H]1c1ccccc1 (relative stereo) [Example I-159]
EC50 [1]: < 1000 nM | EC50 [2]: < 1000 nM | Maximum % activity (with co-corrector): +++ (≥350) | Emax: > 200%

COc1ccc(C(C)(C)C)cc1CN[C@H]1[C@H](C(C)(C)C)[C@@H](C(=O)O)N(C(=O)[C@@H]2OCC[C@@H]2c2ccccc2)[C@H]1c1ccccc1 (relative stereo) [Example I-178]
EC50 [1]: 1000 to 10000 nM | EC50 [2]: 1000 to 10000 nM | Maximum % activity (with co-corrector): +++ (≥350) | Emax: 100 to 200%

COc1ccc(C(C)(C)C)cc1CN[C@H]1[C@H](C(C)(C)C)[C@@H](C(=O)O)N(C(=O)[C@H]2OCC[C@H]2c2ccccc2)[C@H]1c1ccccc1 (relative stereo) [Example I-179]
EC50 [1]: 1000 to 10000 nM | EC50 [2]: 1000 to 10000 nM | Maximum % activity (with co-corrector): +++ (≥350) | Emax: 100 to 200%

COc1ccc(C(C)(C)C)cc1CN[C@H]1[C@H](C(C)(C)C)[C@@H](C(=O)O)N(C(=O)C2CCCCO2)[C@H]1c1ccccc1 (relative stereo) [Example I-193]
EC50 [1]: 1000 to 10000 nM | EC50 [2]: 1000 to 10000 nM | Maximum % activity (with co-corrector): +++ (≥350) | Emax: > 200%

COc1ccc(C(C)(C)C)cc1CN[C@H]1[C@H](C(C)(C)C)[C@@H](C(=O)O)N(C(=O)[C@@H](C)[C@@H]2CCCCO2)[C@H]1c1ccccc1 (relative stereo) [Example I-195]
EC50 [1]: 1000 to 10000 nM | EC50 [2]: 1000 to 10000 nM | Maximum % activity (with co-corrector): +++ (≥350) | Emax: > 200%

COc1ccc(C(C)(C)C)cc1CN[C@H]1[C@H](C(C)(C)C)[C@@H](C(=O)O)N(C(=O)[C@H](C)[C@H]2CCCCO2)[C@H]1c1ccccc1 (relative stereo) [Example I-196]
EC50 [1]: 1000 to 10000 nM | EC50 [2]: 1000 to 10000 nM | Maximum % activity (with co-corrector): +++ (≥350) | Emax: > 200%

COc1nc(C(C)(C)C)ccc1CN[C@H]1[C@H](C(C)(C)C)[C@@H](C(=O)O)N(C(=O)[C@@H]2CCC[C@H](OC)C2)[C@H]1c1ccccc1 (relative stereo) [Example I-198]
EC50 [1]: 1000 to 10000 nM | EC50 [2]: 1000 to 10000 nM | Maximum % activity (with co-corrector): +++ (≥350) | Emax: < 100%

COc1ccc(C(C)(C)C)cc1CN[C@H]1[C@H](C(C)(C)C)[C@@H](C(=O)O)N(C(=O)[C@@H]2[C@@H](C(F)(F)F)[C@@H]3CC[C@H]2O3)[C@H]1c1cccnc1N(C)C (relative stereo) [Example I-204]
EC50 [1]: < 1000 nM | EC50 [2]: < 1000 nM | Maximum % activity (with co-corrector): +++ (≥350) | Emax: > 200%

COc1ncc(C2CCC2)cc1CN[C@H]1[C@H](C(C)(C)C)[C@@H](C(=O)O)N(C(=O)C2COc3ccccc3O2)[C@H]1c1ccccc1 (relative stereo) [Example I-205]
EC50 [1]: 1000 to 10000 nM | EC50 [2]: 1000 to 10000 nM | Maximum % activity (with co-corrector): ++ (≥150 and <350) | Emax: < 100%

COc1ccc(C(C)(C)C)cc1CN[C@H]1[C@H](C(C)(C)C)[C@@H](C(=O)O)N(C(=O)[C@H]2[C@H](C(F)(F)F)[C@H]3CC[C@@H]2O3)[C@H]1c1ccccc1OC(F)F (relative stereo) [Example I-223]
EC50 [1]: 1000 to 10000 nM | EC50 [2]: < 1000 nM | Maximum % activity (with co-corrector): +++ (≥350) | Emax: 100 to 200%

COc1ccc(C(C)(C)C)cc1CN[C@H]1[C@H](C(C)(C)C)[C@@H](C(=O)O)N(C(=O)[C@@H]2C[C@H]3CC[C@@H]2O3)[C@H]1c1ccccc1 (relative stereo) [Example I-241]
EC50 [1]: 1000 to 10000 nM | EC50 [2]: 1000 to 10000 nM | Maximum % activity (with co-corrector): +++ (≥350) | Emax: > 200%

COc1ccc(C(F)(F)F)cc1CN[C@H]1[C@H](C(C)(C)C)[C@@H](C(=O)O)N(C(=O)C2CCCC(F)(F)C2)[C@H]1c1cccnc1OC (relative stereo) [Example I-256]
EC50 [3]: 1000 to 10000 nM | EC50 [4]: < 1000 nM | Maximum % activity (with co-corrector) (CSE-HRP): +++ (≥350) | Emax (CSE-HRP): > 200%

COc1cc(C(F)(F)F)ccc1CN[C@H]1[C@H](C(C)(C)C)[C@@H](C(=O)O)N(C(=O)C2CCCC(F)(F)C2)[C@H]1c1cccnc1OC (relative stereo) [Example I-257]
EC50 [3]: 1000 to 10000 nM | EC50 [4]: < 1000 nM | Maximum % activity (with co-corrector) (CSE-HRP): +++ (≥350) | Emax (CSE-HRP): 100 to 200%

COc1ncc(C2CCC2)cc1CN[C@H]1[C@H](C(C)(C)C)[C@@H](C(=O)O)N(C(=O)[C@@H]2CCC[C@H](C(F)(F)F)C2)[C@H]1c1ccccc1 (relative stereo) [Example I-259]
EC50 [3]: 1000 to 10000 nM | EC50 [4]: 1000 to 10000 nM | Maximum % activity (with co-corrector) (CSE-HRP): +++ (≥350) | Emax (CSE-HRP): 100 to 200%

COc1ncc(C2CCC2)cc1CN[C@H]1[C@H](C(C)(C)C)[C@@H](C(=O)O)N(C(=O)[C@H]2CCC[C@@H](C(F)(F)F)C2)[C@H]1c1ccccc1 (relative stereo) [Example I-260]
EC50 [3]: 1000 to 10000 nM | EC50 [4]: 1000 to 10000 nM | Maximum % activity (with co-corrector) (CSE-HRP): ++ (≥150 and <350) | Emax (CSE-HRP): < 100%

COc1ncc(C(F)(F)F)cc1CN[C@H]1[C@H](C(C)(C)C)[C@@H](C(=O)O)N(C(=O)[C@H]2C[C@@H]3CC[C@H]2O3)[C@H]1c1ccccc1C(C)C (relative stereo) [Example I-270]
EC50 [3]: < 1000 nM | EC50 [4]: < 1000 nM | Maximum % activity (with co-corrector) (CSE-HRP): +++ (≥350) | Emax (CSE-HRP): > 200%

COc1cc(Cl)ccc1CN[C@H]1[C@H](C(C)(C)C)[C@@H](C(=O)O)N(C(=O)[C@H](OC)c2ccccc2)[C@H]1c1ccccc1 (relative stereo) [II-54]
EC50 [3]: 1000 to 10000 nM | EC50 [4]: 1000 to 10000 nM | Maximum % activity (with co-corrector) (CSE-HRP): +++ (≥350) | Emax (CSE-HRP): > 200%

COc1cc(C(F)(F)F)ccc1CN[C@H]1[C@H](C(C)(C)C)[C@@H](C(=O)O)N(C(=O)C2CCCCO2)[C@H]1c1cccnc1OC (relative stereo) [II-98]
EC50 [3]: 1000 to 10000 nM | EC50 [4]: 1000 to 10000 nM | Maximum % activity (with co-corrector) (CSE-HRP): +++ (≥350) | Emax (CSE-HRP): 100 to 200%

COc1ccc(C(C)(C)C)cc1CN[C@H]1[C@H](C(C)(C)C)[C@@H](C(=O)O)N(C(=O)[C@@H]2OCC[C@@H]2C)[C@H]1c1ccccc1 (relative stereo) [II-268]
EC50 [3]: 1000 to 10000 nM | EC50 [4]: 1000 to 10000 nM | Maximum % activity (with co-corrector) (CSE-HRP): +++ (≥350) | Emax (CSE-HRP): > 200%

COc1ccc(C(C)(C)C)cc1CN[C@H]1[C@H](C(C)(C)C)[C@@H](C(=O)O)N(C(=O)[C@H]2OCC[C@H]2C)[C@H]1c1ccccc1 (relative stereo) [II-269]
EC50 [3]: 1000 to 10000 nM | EC50 [4]: 1000 to 10000 nM | Maximum % activity (with co-corrector) (CSE-HRP): +++ (≥350) | Emax (CSE-HRP): > 200%

COc1ccc(C(F)(F)F)cc1CN[C@H]1[C@H](C(C)(C)C)[C@@H](C(=O)O)N(C(=O)[C@@H]2OCC[C@@H]2C)[C@H]1c1ccccc1 (relative stereo) [II-274]
EC50 [3]: 1000 to 10000 nM | EC50 [4]: 1000 to 10000 nM | Maximum % activity (with co-corrector) (CSE-HRP): +++ (≥350) | Emax (CSE-HRP): > 200%
